Test results as given in patent publication US6610699B2, “Use of L-carnitine and its alkanoyl derivatives in the preparation of medicaments with anticancer activity” (Sigma-Tau Industrie Farmaceutiche Riunite S.p.A., priority 1998, dated 2003).

Legend:
[1] = test system: Hamsters; assay: Bleomycin-induced pulmonary toxicity in hamsters: lung histology; assay type: in vivo, hamster; conditions: pre-treatment/IT instillation; day 22
Procedure: (§1) Hamsters weighing 120 g were treated with bleomycin (1 unit) by the intratracheal route (IT) or with an equivalent volume of saline. In addition, the animals were pre-treated with ALC (200 mg/kg) or saline intraperitoneally just before the instillation of bleomycin, followed by daily injections for 1 week. The animals were allowed 3 weeks to recover prior to taking the tissue samples. At the time tissue samples were taken (day 22), one lung of each animal was prepared for histological investigation and the other lung for quantitative determination of hydroxyproline.
The lungs were fixed by insufflation at 20 cm of H2O ex vivo with 10% formaldehyde in PBS (pH 7), embedded in paraffin, sectioned and stained with haematoxylin/eosin. Sections with similar orientation from the portion of the pulmonary lobe—upper, middle and lower, respectively—were examined to verify the presence and degree of inflammatory infiltrate, oedema and interstitial and intra-alveolar fibrosis.

[2] = test system: Hamsters; assay: Bleomycin-induced pulmonary toxicity in hamsters: lung hydroxyproline content; assay type: in vivo, hamster; conditions: pre-treatment i.p. (ALC 200 mg/kg or saline, daily 1 week)/intratracheal instillation (bleomycin 1 unit or saline); day 22
Procedure: as §1
The hydroxyproline content (one of the main constituents of collagen) was measured using the known Woessner method. Lung samples were homogenised, hydrolysed with NaOH, and then left to oxidise before adding Erlich aldehyde reagent. Duplicate aliquots of each sample were assayed by spectrophotometry and compared with a standard calibration curve obtained with purified hydroxyproline. The hydroxyproline content (HYP) is expressed as mg/lung.

[3] = test system: L-MM3 murine breast cancer cells; assay: L-MM3 murine breast cancer in Balb/c mice, taxol and PLC, Experiment A (schedule A)
Procedure: (§2) Cell cultures of L-MM3 murine breast cancer cells were used, cultured at 37° C. in plastic flasks in a humidified atmosphere with 5% CO^2. The cells were grown in DMEM supplemented with 10% FCS and in the presence of 2 mM L-glutamine and 80 μg/ml of gentamicin. The subconfluent cells were collected during the exponential growth phase using trypsin-EDTA and re-suspended in DMEM. They were then injected subcutaneously in female Balb/c mice weighing 20 g at a density of 4×10^5.
(§3) The tumour was measured with a calliper three times a week as soon as it became palpable. The tumour mass is calculated on the basis of the measurements of the two dimensions (length and width), expressed in mm, according to the following formula: [formula]
(§4) If we consider conventionally a tumour density equal to 1, the result is that the tumour volume is equal to (mm^3=mg).
(§5) The agent is weighed, solubilised in the specific vehicle (12 mg/ml), and stored at +4° C., sheltered from the light. At the time of use, it is diluted 1:4 with saline solution in phosphate buffer (PBS, SIGMA) and injected.
(§6) Cremophor is diluted 1:1 with ethanol and stored sheltered from the light. On the day of treatment it is diluted 1:4 with PBS.

[4] = test system: L-MM3 murine breast cancer cells; assay: L-MM3 murine breast cancer in Balb/c mice, taxol and PLC, Experiment B (schedule B)
Procedure: as §2, §3, §4, §5, §6

bleomycin [Saline/bleomycin, reference compound]
lung histology (in words) [1]: dense fibrosis, alveolar atelectasis and oedema | hydroxyproline content (HYP) [2]: 1.831 mg/lung

CCC(=O)O[C@H](CC(=O)[O-])C[N+](C)(C)C [PLC, propionyl L-carnitine]
Animals with tumours/total number of animals, Day 22 [3]: 6/12 | Animals with tumours/total number of animals, Day 25 [3]: 9/12 | Animals with tumours/total number of animals, Day 28 [3]: 11/12 | Animals with tumours/total number of animals, Day 36 [3]: 12/12 | Animals with tumours/total number of animals, Day 46 [3]: 12/12 | Tumour size, Day 22 [3]: 0.6 ± 0.3 | Tumour size, Day 25 [3]: 1.2 ± 0.38 | Tumour size, Day 28 [3]: 3 ± 0.4 | Tumour size, Day 36 [3]: 9.5 ± 0.8 | Tumour size, Day 46 [3]: 15 ± 1.1 | Tumour size, Day 0 ([3]; day of inoculation): 0 | Animals with tumours/total number of animals, Day 19 ([3]; taxol 30 mg/kg i.p. days 15,17,19,21, PLC 100 mg/kg s.c. days 12-24): 4/12 | Animals with tumours/total animals, Day 45 [4]: 8/10 | Animals with tumours/total animals, Day 59 [4]: 8/10 | Tumour size, Day 26 [4]: 0.4 ± 0.3 | Tumour size, Day 31 [4]: 0.5 ± 0.3 | Tumour size, Day 37 [4]: 1.3 ± 0.6 | Tumour size, Day 41 [4]: 2.2 ± 1.0 | Tumour size, Day 45 [4]: 3.9 ± 1.2 | Tumour size, Day 53 [4]: 5.6 ± 1.4 | Tumour size, Day 59 [4]: 8 ± 2.2 | Tumour size, Day 0 ([4]; day of inoculation): 0 | Animals with tumours/total animals, Day 31 ([4]; taxol 30 mg/kg i.p. days 8,10,12,14, PLC 100 mg/kg s.c. to day 59): 3/10
